Source: PMC6883804, “Cathelicidin Contributes to the Restriction of Leishmania in Human Host Macrophages” (Frontiers in Immunology, 2019)

Assays:
CAMP = CAMP gene expression in hMDM1 by qRT-PCR after vitamin D derivatives; assay type: cell-based, human; details: hMDM1, 100 nM, after 6 days (late), qRT-PCR normalized to GAPDH and to untreated control = 1, mean ± SD, n = 1-5
Method: Human peripheral mononuclear cells (PBMCs) were isolated from buffy coats (DRK-Blutspendedienst Hessen GmbH) by passage over a Leukocyte Separation Medium gradient as described previously ([30]). Monocytes, obtained by plastic adherence or CD14 selection were incubated either with 10 ng/ml rhGM-CSF (Leukine® Sanofi-Aventis, Bridgewater, US) or 30 ng/ml rhM-CSF (R&D Systems, Abingdon, UK) for a period of 5 to 7 d at 37°C, 5% CO2 to generate hMDM1 or hMDM2, respectively. Cells were generated in 6 w plates or in 25 cm^2 culture flasks and were detached by cooling cells down on ice, following detachment with a cell scraper. […]
The cells were co-incubated with stationary phase Lm or Lae promastigotes or axenic amastigotes at a MOI ratio of 1:10 in RPMI 1640 supplemented with 10% heat inactivated fetal calf serum, 50 μM β-mercaptoethanol (all from Sigma Aldrich), 2 mM L-glutamine, 100 U/ml penicillin and 100 μg/ml streptomycin, 10 mM HEPES (all from Biochrom) for 3 h at 37°C in a humidified atmosphere in a CO2 incubator. […] The LmdsRed promastigotes increase their fluorescence intensity when transforming into amastigotes, which enables the quantification of the parasite propagation by measuring the dsRed mean fluorescence intensity using FACS ([62], [63]). […]

cathelicidin = assay: Cathelicidin protein expression in hMDM1 by western blot densitometry; assay type: cell-based, human; details: hMDM1, 100 nM, western blot densitometry normalized to ß-actin and untreated control = 1, mean ± SD, n = 5-7
Method: Human peripheral mononuclear cells (PBMCs) were isolated from buffy coats (DRK-Blutspendedienst Hessen GmbH) by passage over a Leukocyte Separation Medium gradient as described previously ([30]). Monocytes, obtained by plastic adherence or CD14 selection were incubated either with 10 ng/ml rhGM-CSF (Leukine® Sanofi-Aventis, Bridgewater, US) or 30 ng/ml rhM-CSF (R&D Systems, Abingdon, UK) for a period of 5 to 7 d at 37°C, 5% CO2 to generate hMDM1 or hMDM2, respectively. Cells were generated in 6 w plates or in 25 cm^2 culture flasks and were detached by cooling cells down on ice, following detachment with a cell scraper. Experimental data, conducted with monocytes obtained from human donors, are depicted as dot plots, in which each dot presents data from a single donor.
(§1) The cells were co-incubated with stationary phase Lm or Lae promastigotes or axenic amastigotes at a MOI ratio of 1:10 in RPMI 1640 supplemented with 10% heat inactivated fetal calf serum, 50 μM β-mercaptoethanol (all from Sigma Aldrich), 2 mM L-glutamine, 100 U/ml penicillin and 100 μg/ml streptomycin, 10 mM HEPES (all from Biochrom) for 3 h at 37°C in a humidified atmosphere in a CO2 incubator. Extracellular parasites were removed by centrifugation and washing the cells. During infection experiments, cathelicidin expression was induced by incubation of hMDM with 100 nM calcitriol or calcipotriol for 24 h. […] The LmdsRed promastigotes increase their fluorescence intensity when transforming into amastigotes, which enables the quantification of the parasite propagation by measuring the dsRed mean fluorescence intensity using FACS ([62], [63]).
A total number of 0.5 × 10^6 hMDM were lysed in Lämmli-Buffer (A. bidest supplemented with 0.7 M Glycerol, 1.7% SDS, 0.1 M DTT and 30 μM Bromphenol blue), denaturated at 95°C for 10 min and loaded onto a 15% SDS-polyacrylamide gel. […] The membrane was washed once more and the protein bands were detected using an ECL substrate (GE Healthcare, Buckinghamshire, United Kingdom). Using ImageJ, densitometry analysis was performed to quantify the intensities of the protein bands.

L. major dsRed in hMDM1 [1] = assay: Parasite survival (dsRed MFI) in infected hMDM1 by flow cytometry; assay type: cell-based, Leishmania major; details: hMDM1 pretreated 24 h with 100 nM, infected with Lm dsRed MOI 10, flow cytometry, mean ± SD; control 1.00 ± 0.46
Method: as §1, with “h. For transgenic LmdsRed flow cytometry was used to analyze infection rates.” for “h.”
(§2) • FACS analysis of Leishmania parasites was performed as described Wenzel et al. ([61]). […] The cells were washed in FACS-Buffer and analyzed by flow cytometry. • To assess parasite survival, Leishmania (dsRed^+) infected hMDM were washed in FACS-buffer and infection rate (% of dsRed^+ hMDM) and the parasite load (mean fluorescent intensity) were assessed by flow cytometry. […] Data were analyzed by BD FACS Diva or FlowJo software (Treestar).

L. major dsRed in hMDM1 [2] = assay: Infection rate (% dsRed+ hMDM1) by flow cytometry; assay type: cell-based, Leishmania major; details: hMDM1 pretreated 24 h with 100 nM, infected with Lm dsRed MOI 10, flow cytometry
Method: as §1, with “h. For transgenic LmdsRed flow cytometry was used to analyze infection rates.” for “h.”
as §2

L. aethiopica (Lae) [3] = assay: DNA fragmentation (TUNEL) by flow cytometry, L. aethiopica; assay type: cell-based, Leishmania aethiopica
Method: (§3) L. major (Lm, MHOM_IL_81_FEBNI), L. aethiopica (Lae, MHOM/ET/72/L100 Z14), and the transgenic Lm dsRed (construct pSSUint-DsRed was a kind gift from Dr. Toni Aebischer, Robert Koch Institute, Berlin, Germany) and Lae dsRed promastigotes were cultured at 27°C in biphasic Novy-Nicolle-McNeal blood agar medium as described ([60]). Of note, all viable promastigotes express the transgenic dsRed protein. Upon transformation into the amastigote life stage, a 1 log-scale higher dsRed fluorescence is present, due to the high-level expression in the amastigote life stage ([31]). Logarithmic-phase or stationary-phase promastigotes were obtained after 2 (log-phase) or 7 (stat-phase) days of culture, respectively. Lm and Lae axenic amastigotes were generated by incubating log-phase promastigotes in pH 5.5 at 33°C and isolated using a discontinuous Histopaque® 1119 (Sigma Aldrich, Germany) density gradient as described ([61]).
(§4) To assess apoptosis, Lm and Lae promastigotes, which resided in a logarithmic growth phase, were treated with 30 and 60 ng/ml hrLL37 (PeptaNova GmbH, Sandhausen, Germany) for 72 h. […] Subsequently, DNA fragmentation was assessed by flow cytometry or immunofluorescence imaging using an in situ cell-death detection kit, based on terminal deoxynucleotidyl transferase dUTP nick end labeling (TUNEL), as described ([30]). Exposure of phosphatidylserine (PS) was assessed by AnnexinA5 binding using flow cytometry.
(§5) • FACS analysis of Leishmania parasites was performed as described Wenzel et al. ([61]). Apoptosis, among parasites, was assessed by staining with AnnexinA5-Alexa Fluor 647 using a Ca^2+ rich buffer. • For phenotyping hMDM by flow cytometry, hMDM were washed in FACS-Buffer (PBS supplemented with 1% FCS, 1% human serum and 1% BSA) and incubated with anti-CD14-FITC (1:100, IgG2b), anti-CD163-PE (1:50, IgG1, GHI/61), or anti-MHC II-PerCP (1:100, IgG2a, L243) for 30 min on ice in the dark. […] Upon analyzing, at least 10,000 events (human cells) or 20,000 (parasites) were recorded using a BD LSR II flow cytometer (BD Bioscience, Heidelberg, Germany). […]

Leishmania major (Lm) [4] = assay: DNA fragmentation (TUNEL) by flow cytometry, L. major; assay type: cell-based; details: mean ± SD
Method: as §3, §4, §5

L. aethiopica (Lae) [5] = assay: Phosphatidylserine exposure (AnnexinA5 binding) by flow cytometry, L. aethiopica; assay type: cell-based, Leishmania aethiopica; details: mean ± SD; for AnnexinA5-binding parasites: Lae log-phase promastigotes, 72 h, untreated 8.0 ± 4.5%
Method: as §3, §4, §5

Leishmania major (Lm) [6] = assay: Phosphatidylserine exposure (AnnexinA5 binding) by flow cytometry, L. major; assay type: cell-based; details: mean ± SD; for AnnexinA5-binding parasites: Lm log-phase promastigotes, 72 h, untreated 14.7 ± 11.1%
Method: as §3, §4, §5

Leishmania promastigotes = assay: Parasite morphology by microscopy after hrLL37 treatment; assay type: cell-based; details: microscopy (Figure 2C), as described for apoptotic parasites
Method: To assess apoptosis, Lm and Lae promastigotes, which resided in a logarithmic growth phase, were treated with 30 and 60 ng/ml hrLL37 (PeptaNova GmbH, Sandhausen, Germany) for 72 h. Leishmania axenic amastigotes were treated with 10 and 100 ng/ml hrLL37 or 25 μM staurosporine for 24 h. Subsequently, DNA fragmentation was assessed by flow cytometry or immunofluorescence imaging using an in situ cell-death detection kit, based on terminal deoxynucleotidyl transferase dUTP nick end labeling (TUNEL), as described ([30]). Exposure of phosphatidylserine (PS) was assessed by AnnexinA5 binding using flow cytometry.

[7] = higher of two hrLL37 concentrations (60 ng/ml per methods)
[8] = lower of two hrLL37 concentrations (30 ng/ml per methods)

Row | Molecule | CAMP gene expression, fold increase (CAMP) [fold] | cathelicidin protein expression, fold increase (cathelicidin; early (24 h)) [fold] | cathelicidin protein expression, fold increase (cathelicidin; late (6 d)) [fold] | L. major parasite survival (mean fluorescent intensity of dsRed, relative to control) (L. major dsRed in hMDM1 [1]) | percentage of hMDM1 infected cells (infection rate) (L. major dsRed in hMDM1 [2]) | TUNEL positivity (L. aethiopica (Lae) [3]; Lae axenic amastigotes, hrLL37 (10 and 100 ng/ml in methods, concentration of this value not stated), 24 h, mean ± SD, untreated 32.3 ± 13.3%) [%] | TUNEL positivity (L. aethiopica (Lae) [3]; Lae log-phase promastigotes, higher of two increasing hrLL37 concentrations (60 ng/ml per methods), 72 h, mean ± SD of at least 3 experiments, untreated 13.3 ± 1.2%) [%] | TUNEL positivity (L. aethiopica (Lae) [3]; Lae log-phase promastigotes, lower of two increasing hrLL37 concentrations (30 ng/ml per methods), 72 h, mean ± SD of at least 3 experiments, untreated 13.3 ± 1.2%) [%] | TUNEL positivity (Leishmania major (Lm) [4]; Lm axenic amastigotes, rhLL37 (10 and 100 ng/ml in methods, concentration of this value not stated), 24 h, not significantly increased, untreated 12.0 ± 6.6%) [%] | TUNEL positivity (Leishmania major (Lm) [4]; Lm log-phase promastigotes, higher of two increasing hrLL37 concentrations (60 ng/ml per methods), 72 h, untreated 6.24 ± 1.9%) [%] | TUNEL positivity (Leishmania major (Lm) [4]; Lm log-phase promastigotes, lower of two increasing hrLL37 concentrations (30 ng/ml per methods), 72 h, untreated 6.24 ± 1.9%) [%] | AnnexinA5 binding (L. aethiopica (Lae) [5]; Lae axenic amastigotes, hrLL37 (10 and 100 ng/ml in methods, concentration of this value not stated), 24 h, untreated 18.7 ± 6.1%) [%] | AnnexinA5-binding parasites (L. aethiopica (Lae) [5]; [7]) [%] | AnnexinA5-binding parasites (L. aethiopica (Lae) [5]; [8]) [%] | AnnexinA5 binding (Leishmania major (Lm) [6]; Lm axenic amastigotes, rhLL37 (10 and 100 ng/ml in methods, concentration of this value not stated), 24 h, minor but significant increase, untreated 3.3 ± 2.3%) [%] | AnnexinA5-binding parasites (Leishmania major (Lm) [6]; [7]) [%] | AnnexinA5-binding parasites (Leishmania major (Lm) [6]; [8]) [%] | Morphology of treated parasites (Leishmania promastigotes)
1 | C=C1/C(=C\C=C2/CCC[C@]3(C)[C@@H]([C@H](C)CCCC(C)(C)O)CC[C@@H]23)C[C@@H](O)C[C@@H]1O [CCT, 1α, 25-dihydroxyvitamin D3] | 587 ± 173 | 25.5 ± 22.2 | 152.5 ± 149.6 | 0.60 ± 0.25 | did not change significantly | – | – | – | – | – | – | – | – | – | – | – | – | –
2 | hrLL37: human recombinant LL37 (PeptaNova GmbH), the hCAP18-derived amphipathic α-helical antimicrobial peptide | – | – | – | – | – | 87.0 ± 6.1 | 21.1 ± 2.3 | 15.5 ± 8.3 | 12.1 ± 2.1 | 22.9 ± 3.1 | 20.2 ± 0.7 | 71.3 ± 12.6 | 31.3 ± 26 | 27.1 ± 14.3 | 8.3 ± 3.0 | 74.8 ± 23.2 | 51.5 ± 20.5 | round-shaped morphology
3 | C=C1/C(=C\C=C2/CCC[C@]3(C)[C@@H]([C@H](C)/C=C/[C@@H](O)C4CC4)CC[C@@H]23)C[C@@H](O)C[C@@H]1O [CPT, calcipotriol] | 282 | – | 101.9 ± 125.4 | 0.74 ± 0.23 | did not change significantly | – | – | – | – | – | – | – | – | – | – | – | – | –
